Holding throughout (assay): relative viability (nuclei count vs DMSO), 5 days (fraction); higher = more cells survive
Compound in test [1]: C/C(=N\NC(=S)N1CCC1)/C2=CC=CC=N2 + COc1cccc2cc(-c3nc([C@H]4CC[C@H](C(=O)O)CC4)n4ncnc(N)c34)[nH]c12 [OSI-027] (partner 0.5 µM)
The method in brief:
(§1)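 Lung cancer cell lines were seeded in 1536-well plates and dosed by pin tool the next day, with either a single drug or a fixed anchor-drug dose combined with five library-drug doses (not always all listed) spaced in √10 steps. Five days later, one step fixed the cells and stained their nuclei (final 0.05% Triton X-100, 1% formaldehyde, 1 ug/ml Hoechst), and nuclei were counted on 4× images. Relative viability is the nuclei count in treated wells divided by the count in vehicle wells, and each value is the median of duplicate plates.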

Compound in test [2]: C/C(=N\NC(=S)N1CCC1)/C2=CC=CC=N2 + C[C@@H](Oc1cc(-c2cnn(C3CCNCC3)c2)cnc1N)c1c(Cl)ccc(F)c1Cl [Crizotinib] (partner 1 µM)
The method in brief:
as §1

Compound in test [3]: C/C(=N\NC(=S)N1CCC1)/C2=CC=CC=N2 + C[C@]1(O)C[C@@H](c2nc(-c3ccc4ccc(-c5ccccc5)nc4c3)c3c(N)nccn32)C1 [Linsitinib] (partner 1 µM)
The method in brief: as §1

Compound in test [4]: C/C(=N\NC(=S)N1CCC1)/C2=CC=CC=N2 + Cc1cc(Nc2cc(N3CCN(C)CC3)nc(Sc3ccc(NC(=O)C4CC4)cc3)n2)n[nH]1 [Tozasertib] (partner 0.1 µM)
The method in brief: as §1

In the case of LOU-NH91, the relative viability in test [1] (first compound 0.05 µM) is 0.412; in test [1] (first compound 0.1581 µM), 0.476; in test [1] (first compound 0.5 µM) it was 0.447; in test [1] (first compound 1.581 µM), 0.388; in test [1] (first compound 5 µM) it was 0.396; in test [2] (first compound 0.05 µM), 0.515. The relative viability in test [2] (first compound 0.1581 µM) turned out to be 0.471; in test [2] (first compound 0.5 µM) it was 0.476; in test [2] (first compound 1.581 µM) it was 0.45; in test [2] (first compound 5 µM), 0.472; in test [3] (first compound 0.05 µM), 0.466; in test [3] (first compound 0.1581 µM), 0.509. The relative viability in test [3] (first compound 0.5 µM) was 0.424; in test [3] (first compound 1.581 µM), 0.407; in test [3] (first compound 5 µM) it was 0.422; in test [4] (first compound 0.05 µM), 0.38; in test [4] (first compound 0.1581 µM), 0.411; in test [4] (first compound 0.5 µM), 0.366. Besides, the values for the relative viability in test [4] (first compound 1.581 µM) and in test [4] (first compound 5 µM) were 0.313 and 0.367, respectively.
Consider NCI-H2347, for which the relative viability was 0.242 in test [1] (first compound 0.05 µM); 0.208 in test [1] (first compound 0.1581 µM); 0.255 in test [1] (first compound 0.5 µM); 0.234 in test [1] (first compound 1.581 µM); 0.218 in test [1] (first compound 5 µM); 0.557 in test [2] (first compound 0.05 µM). The relative viability in test [2] (first compound 0.1581 µM) was 0.438; in test [2] (first compound 0.5 µM) it was 0.322; in test [2] (first compound 1.581 µM), 0.233; in test [2] (first compound 5 µM), 0.302; in test [3] (first compound 0.05 µM) it was 0.295; in test [3] (first compound 0.1581 µM), 0.372. The relative viability amounted to 0.325 in test [3] (first compound 0.5 µM); 0.255 in test [3] (first compound 1.581 µM); 0.314 in test [3] (first compound 5 µM); 0.173 in test [4] (first compound 0.05 µM); 0.254 in test [4] (first compound 0.1581 µM); 0.177 in test [4] (first compound 0.5 µM). Besides, the relative viability in test [4] (first compound 1.581 µM) was determined as 0.244; in test [4] (first compound 5 µM), 0.258.
For NCI-H2126, the relative viability in test [1] (first compound 0.05 µM) worked out at 0.206; in test [1] (first compound 0.1581 µM), 0.225; in test [1] (first compound 0.5 µM), 0.21; in test [1] (first compound 1.581 µM), 0.212; in test [1] (first compound 5 µM), 0.205; in test [2] (first compound 0.05 µM) it was 0.671. For the same cell line, the relative viability was determined as 1.01 in test [2] (first compound 0.1581 µM); 0.226 in test [2] (first compound 0.5 µM); 0.187 in test [2] (first compound 1.581 µM); 0.146 in test [2] (first compound 5 µM); 0.277 in test [3] (first compound 0.05 µM); 0.724 in test [3] (first compound 0.1581 µM). Besides, the relative viability in test [3] (first compound 0.5 µM) is 0.268; in test [3] (first compound 1.581 µM), 0.223; in test [3] (first compound 5 µM), 0.246; in test [4] (first compound 0.05 µM), 0.174; in test [4] (first compound 0.1581 µM) it was 0.167; in test [4] (first compound 0.5 µM), 0.193. Besides, the relative viability in test [4] (first compound 1.581 µM) stood at 0.162; in test [4] (first compound 5 µM), 0.19.
For HCC-827, the relative viability in test [1] (first compound 0.05 µM) amounted to 0.288; in test [1] (first compound 0.1581 µM), 0.281; in test [1] (first compound 0.5 µM), 0.156; in test [1] (first compound 1.581 µM) it was 0.176; in test [1] (first compound 5 µM), 0.168; in test [2] (first compound 0.05 µM) it was 0.675. For the same cell line, the relative viability in test [2] (first compound 0.1581 µM) is 0.894; in test [2] (first compound 0.5 µM), 0.307; in test [2] (first compound 1.581 µM) it was 0.296; in test [2] (first compound 5 µM), 0.204; in test [3] (first compound 0.05 µM) it was 0.716; in test [3] (first compound 0.1581 µM), 0.968. Moreover, the relative viability in test [3] (first compound 0.5 µM) stood at 0.338; in test [3] (first compound 1.581 µM) it was 0.3; in test [3] (first compound 5 µM), 0.187; in test [4] (first compound 0.05 µM) it was 0.383; in test [4] (first compound 0.1581 µM) it was 0.36; in test [4] (first compound 0.5 µM), 0.225. Moreover, the relative viability in test [4] (first compound 1.581 µM) was 0.185; in test [4] (first compound 5 µM), 0.148.
Take NCI-H3122: the relative viability worked out at 0.138 in test [1] (first compound 0.05 µM); 0.0988 in test [1] (first compound 0.1581 µM); 0.132 in test [1] (first compound 0.5 µM); 0.134 in test [1] (first compound 1.581 µM); 0.129 in test [1] (first compound 5 µM); 0.151 in test [2] (first compound 0.05 µM). In addition, the relative viability in test [2] (first compound 0.1581 µM) is 0.171; in test [2] (first compound 0.5 µM) it was 0.185; in test [2] (first compound 1.581 µM) it was 0.171; in test [2] (first compound 5 µM), 0.176; in test [3] (first compound 0.05 µM), 0.145; in test [3] (first compound 0.1581 µM), 0.143. Also, the relative viability in test [3] (first compound 0.5 µM) stood at 0.169; in test [3] (first compound 1.581 µM), 0.246; in test [3] (first compound 5 µM), 0.221; in test [4] (first compound 0.05 µM) it was 0.0931; in test [4] (first compound 0.1581 µM), 0.0762; in test [4] (first compound 0.5 µM), 0.0946. Further, the relative viability in test [4] (first compound 1.581 µM) was found to be 0.109; in test [4] (first compound 5 µM), 0.0776.
On to HOP-62, for which the relative viability in test [1] (first compound 0.05 µM) came to 0.104; in test [1] (first compound 0.1581 µM), 0.0907; in test [1] (first compound 0.5 µM) it was 0.101; in test [1] (first compound 1.581 µM), 0.111; in test [1] (first compound 5 µM), 0.102; in test [2] (first compound 0.05 µM) it was 0.218. Moreover, the relative viability in test [2] (first compound 0.1581 µM) came to 0.626; in test [2] (first compound 0.5 µM), 0.0574; in test [2] (first compound 1.581 µM) it was 0.0819; in test [2] (first compound 5 µM), 0.0635; in test [3] (first compound 0.05 µM), 0.162; in test [3] (first compound 0.1581 µM), 0.968. Also, the relative viability amounted to 0.0703 in test [3] (first compound 0.5 µM); 0.0888 in test [3] (first compound 1.581 µM); 0.0655 in test [3] (first compound 5 µM); 0.129 in test [4] (first compound 0.05 µM); 0.109 in test [4] (first compound 0.1581 µM); 0.0803 in test [4] (first compound 0.5 µM). Further, the relative viability in test [4] (first compound 1.581 µM) is 0.104; in test [4] (first compound 5 µM), 0.0835.
As for HCC-44, the relative viability in test [1] (first compound 0.05 µM) was determined as 0.183; in test [1] (first compound 0.1581 µM) it was 0.221; in test [1] (first compound 0.5 µM) it was 0.261; in test [1] (first compound 1.581 µM) it was 0.195; in test [1] (first compound 5 µM), 0.297; in test [2] (first compound 0.05 µM), 0.783. Further, the relative viability in test [2] (first compound 0.1581 µM) is 0.208; in test [2] (first compound 0.5 µM), 0.186; in test [2] (first compound 1.581 µM), 0.209; in test [2] (first compound 5 µM), 0.229; in test [3] (first compound 0.05 µM) it was 0.553; in test [3] (first compound 0.1581 µM), 0.141. Besides, the relative viability in test [3] (first compound 0.5 µM) turned out to be 0.143; in test [3] (first compound 1.581 µM), 0.154; in test [3] (first compound 5 µM), 0.183; in test [4] (first compound 0.05 µM), 0.359; in test [4] (first compound 0.1581 µM), 0.309; in test [4] (first compound 0.5 µM), 0.257. Besides, the relative viability in test [4] (first compound 1.581 µM) was 0.246; in test [4] (first compound 5 µM), 0.231.

For the origin of these results see the supplement of paper PMC10307832.
